{"source": "patent US20260108476A1", "about": "“2,4 DNP and Prodrugs Thereof for Treatment of Cancer” (priority 2021, published 2026)", "key": {"A2780, M248, MES-SA, MX2": {"system": "A2780, M248, MES-SA, MX2", "assay": "chromatin folding by PWS microscopy in cell line models", "format": "cell-based", "conditions": "for chromatin folding (structural alterations): FIG. 5A, five cell line models", "text": "FIG. 5A is a graph showing structural alterations due to taxol treatment (Paclitaxel or Docetaxel) in contrast to digoxin for five cell line models (A2780, M248, MES-SA, MX2). Chemotherapeutic intervention increases while CPT agent (digoxin) decreases chromatin folding. Error bars: S.E. of 5 different cell lines. FIGS. 5B-5C are diagrams showing intercellular (FIG. 5B) and intra-network (FIG. 5C) transcriptional heterogeneity increases in cells treated with chemotherapy and decreases in cells treated with CPTs for critical biological processes: (1) cell cycle, (2) apoptosis, (3) proliferation, (4) transcription, (5) signaling, (6) differentiation, (7) glycolysis, (8) translation, (9) ion transport, (10) metabolism, (11) oxidation/reduction, (12) stress response, and (13) nucleosome assembly. Circle size: the number of genes within a network/process. Color: % change in transcription heterogeneity compared to controls. […] Digoxin reduces chromatin heterogeneity. Arrow: nuclei.\nChromatin is a complex arrangement of DNA wrapped around structural and regulatory proteins that control the expression of genes directly involved in cellular function and phenotype. Local physicochemical changes broadly affect chromatin folding and alter gene expression patterns across the genome. In a non-limiting example, decoding the chromatin folding code and understanding how different agents affect folding dynamics at the nanoscale can be helpful to develop new diagnostic tools. The resolution of optical microscopy is limited by diffraction to >200 nm. Recently, a major breakthrough has been made in the emergence of super-resolution fluorescence microscopy that enabled development of a suite of label-free nanoscale imaging technologies including Partial Wave Spectroscopic (PWS) Microscopy (see, for example, FIG. 4). The main principle of PWS is a previously overlooked phenomenon that while sub-diffractional structures are not resolvable, they are still detectable through the analysis of interference of elastically scattered light. PWS can measure the statistics of macromolecular density distribution within live or fixed cells with sensitivity in the 20-200 nm length scales, which is ideally suited for the characterization of chromatin topology. It was by using PWS (and corroborated by electron microscopy) that heterogenization of chromatin folding was discovered as one of the earliest events in carcinogenesis across multiple cancer types. Consequently, PWS was turned into a robust diagnostics technology (nanocytology) and is now in clinical trials for early screening or prognostication of lung, colon, and prostate cancers."}, "MCF10A/NLS-DAO cells": {"system": "MCF10A/NLS-DAO cells", "assay": "Western blot of EMT markers in MCF10A/NLS-DAO cells", "format": "cell-based", "conditions": "D-Ala 10 nM, activation of nuclear ROS", "protocol": "FIG. 1B is a graph of experimental data showing the quantification of the relative levels of nuclear ROS shown as the ratio of fluorescence between the oxidized and reduced forms. FIG. 1C is a Western blot analysis showing increased EMT markers after activation of nuclear ROS with D-Ala (10 nM). FIG. 1D is a graph of experimental data showing proliferation curves comparing naïve (MCF10A) and D-Ala (10 nM) exposed MCF10A/NLS-DAO cells. Results are averages of at least 5 biologic replicates with (*) representing p<0.05.\nNuclear ROS are sufficient and required to activate EMT and metastasis of breast cancer cells. ROS levels were measured in the nuclei of different breast cancer cell lines displaying vastly different tumorigenicity and metastatic potential using novel NLS-Orp1roGFP2 biosensors. […] Also, transformation of MCF10A by v-Src promoted a marked increase in nuclear ROS levels (FIGS. 1A & B). […] To directly link nuclear ROS with aggressive cancer behavior, a nucleus-targeted system (NLS-D-amino acid oxidase, NLS-DAO) was engineered that allows to generate ROS21 directly in the nucleus and expressed it into MCF10A cells to recreate, using a non-transformed cell background, this distinctive feature of metastatic breast cancer cell lines. […]"}, "[1]": {"system": "PY230 murine mammary tumor cells", "assay": "proliferation of PY230 cells under doxorubicin", "format": "cell-based", "conditions": "DXR 250 nM, within a few hours from application", "protocol": "(§1) FIGS. 2A-2B show heightened levels of nuclear ROS in persister chemotherapy-resistance cancer cells. FIG. 2A is a collection of images and graphs showing experimental data generated using NLS-Orp1roGFP2 biosensor to measure ROS in the nucleus of breast cancer cell lines. PY230 murine mammary tumor cells expressing NLS-Orp1roGFP2 were treated with doxorubicin (DXR, 250 nM) for the indicated amounts of times in plots of proliferation as well as fluorescence ratios indicate that persister cells have high levels of nuclear ROS and proliferate in the presence of chemotherapy mimicking clinical chemotherapy resistance where most cells initially die leaving persister ones that rapidly proliferate unabated by treatment. Induction of NLS-catalase, that removes ROS from the nucleus, resensitized persister cells to the killing effects of DXR. FIG. 2B is a collection of images showing mammary xenografts of luciferase-labeled transformed MCF10A constitutively expressing NLS-catalase under an inducible promoter rapidly grow and metastasize within 3 months of implantation. […]\nNuclear ROS are sufficient and required to activate EMT and metastasis of breast cancer cells. ROS levels were measured in the nuclei of different breast cancer cell lines displaying vastly different tumorigenicity and metastatic potential using novel NLS-Orp1roGFP2 biosensors. […]"}, "[2]": {"system": "v-Src transformed luciferase-expressing MCF10A xenografts", "assay": "mammary xenograft of v-Src transformed luciferase-expressing MCF10A", "format": "in vivo, NOD/SCID mice", "conditions": "doxorubicin combined with NLS-catalase, 2 months of combined therapies, assessed at month 7", "protocol": "as §1, with “DXR.” for “DXR. FIG. 2B is a collection of images showing mammary xenografts of luciferase-labeled transformed MCF10A constitutively expressing NLS-catalase under an inducible promoter rapidly grow and metastasize within 3 months of implantation.”\nResults in FIG. 2A, closely recapitulate the reality of most clinical cancer treatments that are effective at first eliminating the bulk tumor but that are become ineffective when the disease recur. […] Three months after implantation, metastases were clearly detected by luciferin-induced bioluminescence in the chest and head of most mice FIG. 2B. […]"}, "BT20 NLS Orp roGFP cells": {"system": "BT20 NLS Orp roGFP cells", "assay": "nuclear ROS by NLS-Orp1roGFP2 biosensor in BT20 cells", "format": "cell-based, human", "conditions": "BT20, varying concentrations of DNP, 24 hours", "protocol": "(§2) FIGS. 3A-3C show how DNP suppresses nuclear ROS in basal BT breast cancer cell lines.\n(§3) Nuclear ROS are sufficient and required to activate EMT and metastasis of breast cancer cells. ROS levels were measured in the nuclei of different breast cancer cell lines displaying vastly different tumorigenicity and metastatic potential using novel NLS-Orp1roGFP2 biosensors. […] Also, transformation of MCF10A by v-Src promoted a marked increase in nuclear ROS levels (FIGS. 1A & B). […] To directly link nuclear ROS with aggressive cancer behavior, a nucleus-targeted system (NLS-D-amino acid oxidase, NLS-DAO) was engineered that allows to generate ROS21 directly in the nucleus and expressed it into MCF10A cells to recreate, using a non-transformed cell background, this distinctive feature of metastatic breast cancer cell lines. […] Next, it was tested whether nuclear ROS contributed to treatment failure by promoting resistance to first line chemotherapeutic drugs, i.e. doxorubicin. It was also tested whether removing suppressing ROS specifically in the nucleus restored sensitivity to doxorubicin. The strategy of removing ROS from the nucleus is novel, targets a feature that seems unique to cancer cells and preserves redox signaling that happen in large part in the cytosol22. […]"}, "[3]": {"system": "BT474 NLS Orp roGFP cells", "assay": "nuclear ROS by NLS-Orp1roGFP2 biosensor in BT474 cells", "format": "cell-based, human", "conditions": "BT474, varying concentrations of DNP, 24 hours", "protocol": "as §2, §3"}, "28-day toxicity studies": {"assay": "28-day toxicity studies", "format": "in vivo", "conditions": "low doses", "text": "(§4) In one embodiment, the compositions and methods of the disclosure relate to targeting oxidative stress upstream at the mitochondria that may be causative for many disorders, including, but not limited to, cancer, pain, and/or pain related conditions. There have been a variety of attempts to lower cellular stress, such as administering anti-oxidants, however these drugs have limited tissue penetration into the brain and lower ROSs after they have been formed. […] While not being bound to theory, it is postulated that DNP modulates the mitochondrial membrane potential having a significant impact at preventing ROS formation in isolated mitochondria and in the treated wildtype mice. DNP treatment 3-hours post-ischemia reduced cerebral infarct volume 40% by protecting the penumbra or “threaten tissue” and could provide similar benefits after a blast to protect inner hair cells from eminent cell death. DNP comes with the benefits of known risks as it was used 80-years ago for weight loss at high doses (˜300 mg) in over 100,000 people, however shown recently in models of neurodegeneration at very low hermetic doses to improve cognition and learning. The pharmacology, which is pleiotropic, appears to provide broad neuroprotection by lowering ROS/mTOR and increasing protective factors such as CAMP, CREB, and BDNF, could be useful for treating hearing loss."}, "ion channels": {"system": "ion channels", "assay": "inhibition of ion channels", "text": "as §4"}, "CYP": {"system": "CYP", "assay": "inhibition of CYP", "format": "in vitro ADME", "text": "as §4"}, "Caco-2": {"system": "Caco-2", "assay": "Caco-2", "format": "in vitro ADME", "text": "as §4"}, "[4]": {"assay": "pharmacokinetics of DNP in rats", "format": "in vivo"}, "[5]": {"conditions": "at the doses proposed", "protocol": "The hypothesis that mitigating mitochondrial dysfunction via scavenging ROS prevents chromatin changes that promote treatment resistance is tested using DNP, a compound in development with uncoupling activity already in Phase I trials for Huntington's Disease. DNP works largely by reducing the mitochondrial electrochemical potential reducing the output of ROS."}, "[6]": {"conditions": "treatment 3-hours post-ischemia; cited from earlier work"}, "wildtype mice": {"system": "wildtype mice", "conditions": "chronic, extraordinarily low dose; cited from earlier work"}, "[7]": {"system": "models of neurodegeneration", "conditions": "very low hermetic doses; cited from earlier work"}}, "note": "Entries after “also recorded” stand apart in the source; their conditions may differ."}
{"compound": "CC(=O)O[C@H]1C(=O)[C@@]2(C)[C@H]([C@H](OC(=O)c3ccccc3)[C@]3(O)C[C@H](OC(=O)[C@H](O)[C@@H](NC(=O)c4ccccc4)c4ccccc4)C(C)=C1C3(C)C)[C@]1(OC(C)=O)CO[C@@H]1C[C@@H]2O", "note": "[Paclitaxel]", "values": [{"measurement": "chromatin folding (structural alterations)", "setting": "A2780, M248, MES-SA, MX2", "value": "increases"}]}
{"compound": "CC(=O)O[C@@]12CO[C@@H]1C[C@H](O)[C@@]1(C)C(=O)[C@H](O)C3=C(C)[C@@H](OC(=O)[C@H](O)[C@@H](NC(=O)OC(C)(C)C)c4ccccc4)C[C@@](O)([C@@H](OC(=O)c4ccccc4)[C@H]21)C3(C)C", "note": "[Docetaxel]", "values": [{"measurement": "chromatin folding (structural alterations)", "setting": "A2780, M248, MES-SA, MX2", "value": "increases"}]}
{"compound": "C[C@@H](N)C(=O)O", "note": "[D-Ala]", "values": [{"measurement": "EMT markers", "setting": "MCF10A/NLS-DAO cells", "value": "increased"}]}
{"compound": "COc1cccc2c1C(=O)c1c(O)c3c(c(O)c1C2=O)C[C@@](O)(C(=O)CO)C[C@@H]3O[C@H]1C[C@H](N)[C@H](O)[C@H](C)O1", "note": "[doxorubicin]", "values": [{"measurement": "effect on cell population (proliferation)", "setting": "[1]", "value": "eliminated the bulk of cells"}, {"measurement": "metastatic disease and primary tumor (bioluminescence)", "setting": "[2]", "value": "complete remission of metastatic disease as well as significant regression of primary tumor"}]}
{"compound": "O=[N+]([O-])c1ccc(O)c([N+](=O)[O-])c1", "note": "[DNP, 2,4-dinitrophenol]", "values": [{"measurement": "levels of nuclear ROS (ox/red Orp1roGFP2 ratio)", "setting": "BT20 NLS Orp roGFP cells", "value": "strongly suppresses; also recorded: clear concentration dependence of nROS reduction"}, {"measurement": "levels of nuclear ROS (ox/red Orp1roGFP2 ratio)", "setting": "[3]", "value": "strongly suppresses; also recorded: clear concentration dependence of nROS reduction"}, {"measurement": "Safety Index", "setting": "28-day toxicity studies; 28-day toxicity studies", "value": "≥ 10", "unit": "×"}, {"measurement": "toxicity", "setting": "28-day toxicity studies; 28-day", "value": "not toxic"}, {"measurement": "inhibition of ion channels", "setting": "ion channels", "value": "no inhibition"}, {"measurement": "inhibition of CYP", "setting": "CYP", "value": "no inhibition"}, {"measurement": "inhibition, Caco-2", "setting": "Caco-2", "value": "no inhibition"}, {"measurement": "distribution", "setting": "[4]", "value": "good"}, {"measurement": "oral bioavailability", "setting": "[4]", "value": "orally bioavailable"}, {"measurement": "half-life", "setting": "[4]; rat, plasma", "value": "~6", "unit": "h"}, {"measurement": "safety", "setting": "[5]", "value": "safe"}, {"measurement": "reduction of cerebral infarct volume", "setting": "[6]", "value": 40, "unit": "%"}, {"measurement": "lifespan versus untreated mice", "setting": "wildtype mice", "value": "living longer than untreated mice"}, {"measurement": "cognition and learning", "setting": "[7]", "value": "improve"}]}
{"compound": "C[C@H]1O[C@@H](O[C@H]2[C@@H](O)C[C@H](O[C@H]3[C@@H](O)C[C@H](O[C@H]4CC[C@@]5(C)[C@H](CC[C@@H]6[C@@H]5C[C@@H](O)[C@]5(C)[C@@H](C7=CC(=O)OC7)CC[C@]65O)C4)O[C@@H]3C)O[C@@H]2C)C[C@H](O)[C@@H]1O", "note": "[digoxin]", "values": [{"measurement": "chromatin folding (structural alterations)", "setting": "A2780, M248, MES-SA, MX2", "value": "decreases"}, {"measurement": "chromatin heterogeneity, live cell PWS", "setting": "A2780, M248, MES-SA, MX2; FIG. 5D", "value": "reduces"}]}
